The source of these data is patent publication US11312754B2, “Sunflower seed protein-derived peptides” (ACCESS BUSINESS GROUP INTERNATIONAL LLC, priority 2019, dated 2022).

≈ marks a conversion by molar mass, not a printed value. Where a SMILES comes first, the peptide text is derived from it. Where no end group is shown, it is not given here.

Test [1] in a line: Hydroxyl radical scavenging activity (HRSA) assay. As to conditions: individual isolated peptides. As for the experimental part:
The hydroxyl radical scavenging activity of crude hydrolysate and the protein hydrolysate composition of Fraction 7 is determined by dissolving samples (crude hydrolysate and the protein hydrolysate composition of Fraction 7 of Example 1) and 1,10-phenanthroline in 0.1 M sodium phosphate buffer (pH 7.4). FeSO4 (3 mM) and 0.01% hydrogen peroxide are separately dissolved in distilled water. An aliquot (50 μL) of samples (final assay concentration of 0.5 mg/mL) or buffer (control) is first added to a clear, flat bottom 96-well plate followed by additions of 50 μL of 1,10-phenanthroline and 50 μL of FeSO4. To initiate reaction in the wells, 50 μL of hydrogen peroxide (H2O2) solution is added to the mixture, which is then covered and incubated at 37° C. for 1 h with shaking. Absorbance is measured at 536 nm every 10 min for a period of 1 h.
The procedure set forth above for Examples 12 & 13 is repeated using samples containing one of the isolated peptides 1-4 of Fraction 7 of Example 1.

The nature of test [2]: DPPH radical scavenging assay. The conditions noted are these: individual isolated peptides. As for the experimental part: The scavenging activity of crude hydrolysate and the protein hydrolysate composition of Fraction 7 against DPPH is determined by first dissolving samples (crude hydrolysate and the protein hydrolysate composition of Fraction 7 of Example 1) in 0.1 M sodium phosphate buffer, pH 7.0 containing 1% (w/v) Triton X-100. DPPH is dissolved in methanol to a final concentration of 100 μM, and mixed with the samples in the 96-well plate to a final assay concentration of 1 mg/mL. The samples are then incubated at room temperature in the dark for 30 min, and the absorbance read at 517 nm.
The procedure set forth about for Examples 10 & 11 is repeated using samples containing one of the isolated peptides 1-4 of Fraction 7 of Example 1.
Background: DPPH is a stable violet radical that fades when it is reduced.

For test [3], the target named is T1, human recombinant renin (Homo sapiens, UniProt P00797).
T1 construct: purchased
T1 sequence (P00797 67-406): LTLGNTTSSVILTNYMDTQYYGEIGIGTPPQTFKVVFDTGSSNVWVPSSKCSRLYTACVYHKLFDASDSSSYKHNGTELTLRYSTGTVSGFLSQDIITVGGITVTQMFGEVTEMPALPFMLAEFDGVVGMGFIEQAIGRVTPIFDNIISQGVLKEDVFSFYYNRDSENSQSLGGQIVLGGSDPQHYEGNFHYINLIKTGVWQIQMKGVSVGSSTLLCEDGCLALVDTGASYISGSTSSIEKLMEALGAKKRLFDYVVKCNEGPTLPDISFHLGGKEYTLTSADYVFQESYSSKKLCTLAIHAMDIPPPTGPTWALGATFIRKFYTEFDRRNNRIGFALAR
Nature of the test: Renin inhibition assay (Renin Inhibitor Screening Assay Kit). As to conditions: individual isolated peptides, 1 mg/mL; read-out: % Inhibition ± SD of renin activity. It counts as biochemical. As for the experimental part:
In vitro inhibitory activity of human recombinant renin is conducted using a Renin Inhibitor Screening Assay Kit. Samples (crude hydrolysate and the protein hydrolysate composition of Fraction 7 of Example 1) are diluted in Tris-HCl buffer (50 mM, pH 8.0, containing 100 mM NaCl) to a final concentration 0.5 mg/mL, and pre-warmed to 37° C. The reaction is initiated by adding renin (10 μL), shaking for 10 s to mix, and incubating at 37° C. for 15 min. Fluorescence intensity (FI) is then recorded at an excitation wavelength of 340 nm and an emission wavelength of 490 nm using a fluorometric microplate reader. The results of the assay are set forth in Table 3 below, expressed as percent inhibition. The procedure set forth above for Examples 18 & 19 is repeated at 1 mg/mL concentrations using samples containing one of the isolated peptides 1-4 of Fraction 7 of Example 1.

For test [4], the target named is ACE (Homo sapiens, UniProt P12821). The test can be described thus: ACE inhibition assay (FAPGG substrate). It counts as biochemical. As to conditions: individual isolated peptides. On the procedure: The ability of sample to inhibit in vitro activity of ACE is determined by mixing 1 mL of FAPGG (0.5 mM, dissolved in buffer [50 mM Tris-HCl buffer containing 0.3 M NaCl, pH 7.5]) with 20 μL ACE (1 U/mL, final activity of 20 mU) and 200 μL sample (crude hydrolysate and the protein hydrolysate composition of Fraction 7 of Example 1, each dissolved in buffer to 1 mg/mL). The rate of decrease in absorbance at 345 nm is recorded for 2 min at room temperature. The results of the assay are set forth in Table 3 below, expressed as percent inhibition.
The procedure set forth above for Examples 16 & 17 is repeated using samples containing one of the isolated peptides 1-4 of Fraction 7 of Example 1.

ACE, sequence (P12821 30-1306, species assumed): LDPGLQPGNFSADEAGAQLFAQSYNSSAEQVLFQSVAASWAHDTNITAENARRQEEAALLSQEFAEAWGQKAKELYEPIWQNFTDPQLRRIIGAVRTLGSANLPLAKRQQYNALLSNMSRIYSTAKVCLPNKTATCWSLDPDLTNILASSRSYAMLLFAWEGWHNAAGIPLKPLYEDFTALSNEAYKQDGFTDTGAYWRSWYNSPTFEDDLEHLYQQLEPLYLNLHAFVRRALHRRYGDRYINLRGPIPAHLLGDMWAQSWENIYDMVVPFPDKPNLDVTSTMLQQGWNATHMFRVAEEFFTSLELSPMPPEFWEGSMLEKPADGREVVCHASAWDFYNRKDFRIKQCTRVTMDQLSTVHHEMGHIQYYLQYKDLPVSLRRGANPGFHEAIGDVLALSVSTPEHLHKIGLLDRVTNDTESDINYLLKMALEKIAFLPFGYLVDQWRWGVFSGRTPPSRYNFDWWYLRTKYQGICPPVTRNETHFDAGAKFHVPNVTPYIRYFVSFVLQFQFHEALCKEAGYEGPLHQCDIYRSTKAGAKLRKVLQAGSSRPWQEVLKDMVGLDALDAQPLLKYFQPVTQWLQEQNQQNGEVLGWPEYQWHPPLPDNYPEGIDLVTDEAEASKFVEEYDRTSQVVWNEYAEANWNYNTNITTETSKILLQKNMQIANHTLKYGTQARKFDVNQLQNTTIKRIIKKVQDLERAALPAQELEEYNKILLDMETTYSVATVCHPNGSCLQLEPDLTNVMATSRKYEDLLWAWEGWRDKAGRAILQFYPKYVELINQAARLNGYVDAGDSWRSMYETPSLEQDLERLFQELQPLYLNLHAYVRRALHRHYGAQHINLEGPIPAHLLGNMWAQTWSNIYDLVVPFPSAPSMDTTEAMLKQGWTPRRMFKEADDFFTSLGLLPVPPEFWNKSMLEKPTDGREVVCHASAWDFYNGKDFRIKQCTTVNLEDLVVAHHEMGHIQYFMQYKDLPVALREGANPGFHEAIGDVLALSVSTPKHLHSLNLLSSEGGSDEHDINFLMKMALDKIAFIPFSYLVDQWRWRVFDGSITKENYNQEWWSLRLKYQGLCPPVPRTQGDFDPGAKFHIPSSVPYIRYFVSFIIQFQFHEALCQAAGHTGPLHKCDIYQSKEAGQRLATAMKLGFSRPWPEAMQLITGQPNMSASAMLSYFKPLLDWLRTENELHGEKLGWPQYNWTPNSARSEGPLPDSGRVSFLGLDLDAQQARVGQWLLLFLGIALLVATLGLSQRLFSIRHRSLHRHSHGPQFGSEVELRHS

For `CC(C)[C@H](NC(=O)[C@H](Cc1ccccc1)NC(=O)[C@@H](N)Cc1ccc(O)cc1)C(=O)N1CCC[C@H]1C(=O)O` [Peptide 1, Tyr-Phe-Val-Pro] (H-YFVP-OH; N-terminus and C-terminus assumed), in test [1], the “IC50 hydrogen (hydroxyl) radical scavenging” value (shortened to “IC50 hydrogen”) was 1930 ± 20 µg/mL (≈ 3.68 mM). The “IC50 DPPH radical scavenging” value in test [2] was 3850 ± 130 µg/mL (≈ 7.34 mM). In test [3], the inhibition (as a rule, the relative decrease from the control value, in per cent) at 1000 µg/mL was -40.5 ± 6.23%. For the same compound, in test [4], the IC50 (commonly the concentration that gives 50% inhibition) is 477 µM.
For MVWGP [Peptide 3, Met-Val-Trp-Gly-Pro], the “IC50 hydrogen” value in test [1] was determined as 2500 ± 30 µg/mL. In test [2], the “IC50 DPPH radical scavenging” value stood at 4690 ± 50 µg/mL. The inhibition at 1000 µg/mL in test [3] is -46.4 ± 1.56%. 35.7 µM corresponded to half-maximal inhibition in test [4] (IC50).
Take SGRDP [Peptide 2, Ser-Gly-Arg-Asp-Pro]: in test [1], the “IC50 hydrogen” value worked out at 1900 ± 80 µg/mL. Moreover, the “IC50 DPPH radical scavenging” value in test [2] came to 28340 ± 380 µg/mL. Further, the inhibition at 1000 µg/mL in test [3] is -54.5 ± 1.48%. Moreover, in test [4], the midpoint of inhibition, the IC50, lay at 961 µM.
The like results for “TGSYTEGWS [Peptide 4, Thr-Gly-Ser-Tyr-Thr-Glu-Gly-Trp-Ser]” were, in that order, 1840 ± 10 µg/mL, 4260 ± 30 µg/mL, 107 ± 17.6% and 557 µM.
